Test results: PubChem BioAssay AID624372 (Broad Institute, 2012)
Inconclusive results are not listed. The source made the active and inactive calls.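 Rule for the calls: active = fitted curve reaches -35% activity change below twice the top valid dose, with every replicate test called active; inconclusive = replicate tests disagree on the call; inactive = every replicate test called inactive.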

What was measured:
[1] = cytotoxicity in untransfected HEK293T cells – cell-based, CellTiter-Glo luminescence, dry powder, counter-screen for EBV LMP1 inhibitor project, dose response (AID 624372); conditions: HEK293T viability, CellTiter-Glo ATP luminescence, 48 h
[2] = system: HEK293T viability, CellTiter-Glo ATP luminescence, 48 h; assay: as above

SMILES | activity change, negative = cytotoxicity ([1]; at 26 µM (top of the series)) | further results
CCN1CCN(C(c2cccnc2)c2cc(Cl)c3cccnc3c2O)CC1 (centres undefined) | 14% (inactive) | 
COc1ccccc1[C@]1(C)ON(c2ccccc2C(F)(F)F)C1=O | 21.8% (inactive) | 
CCc1ccc(/C=C2\SC(=S)N(CCCC(=O)Nc3ccccn3)C2=O)cc1 | 1.67% (inactive) | 
CCc1ccc(/C=C/C(=O)C2C(=O)c3ccccc3C2=O)cc1 | 1.92% (inactive) | 
C[C@@H]1CCCCO[C@@H](CN(C)Cc2ccccc2)[C@H](C)CN([C@H](C)CO)C(=O)c2cc(NC(=O)Nc3ccc4c(c3)OCO4)ccc2O1 | 1.15% (inactive) | 
Cc1ccnc(NC(=O)c2ccc(C(=O)c3ccccc3)cc2)c1 |  | AC35 [2]: 72 µM
C/C(=N\NC(=S)N1CCCCC1)c1cccc(C)n1 |  | AC35 [2]: 0.785 µM
C/C(=N\NC(=S)Nc1cccc(C)c1)c1ccccn1 |  | activity change, negative = cytotoxicity ([1]; at 19.5 µM (top of the series)): -10.2% (inactive)
COc1ccc(C(=O)Nc2ccc3[nH]ccc3c2)cc1 | 12.8% (inactive) | 
C/C=C/C/C=C/CCC(=O)[C@H]1O[C@H]1C(N)=O |  | AC35 [2]: 18.3 µM
C[C@@H]1CN([C@@H](C)CO)C(=O)c2cc(NC(=O)Nc3ccc(C(F)(F)F)cc3)ccc2O[C@@H](C)CCCCO[C@H]1CN(C)Cc1ccc(C(F)(F)F)cc1 | -3.84% (inactive) | 
CC1CN(C(=O)CSc2nnc3c4ccccc4n(Cc4cccc(Cl)c4)c3n2)CCN1C(=O)c1ccccc1F (centres undefined) | 19.4% (inactive) | 
CSc1nc(-c2ccc(C)cc2)nc(C(Cl)Cl)n1 | 1.77% (inactive) | 
C[C@@H]1CCCCO[C@H](CN(C)C(=O)CCC(F)(F)F)[C@H](C)CN([C@@H](C)CO)C(=O)c2cc(NC(=O)CCC(F)(F)F)ccc2O1 | -7.41% (inactive) | 
C[C@H](CO)N1C[C@H](C)[C@H](CN(C)C(=O)Nc2ccc(C(F)(F)F)cc2)OCCCC[C@H](C)Oc2ccc(NC(=O)Nc3ccc(F)cc3)cc2C1=O |  | AC35 [2]: 48.2 µM
COc1ccccc1NC(=S)N/N=C(\C)c1ccccn1 |  | activity change, negative = cytotoxicity ([1]; at 19.5 µM (top of the series)): 3.97% (inactive)
COc1ccc2nc(Nc3nc(C)c(CCC(C)C)c(=O)[nH]3)nc(C)c2c1 | 4.99% (inactive) | 
C/C(=N\NC(=S)N1CC2CCC(CC2)C1)c1cccc(C)n1 |  | AC35 [2]: 2.02 µM
C[C@@H]1CN([C@@H](C)CO)C(=O)c2cc(NC(=O)Nc3ccc(C(F)(F)F)cc3)ccc2O[C@@H](C)CCCCO[C@@H]1CN(C)CC1CCCCC1 |  | AC35 [2]: 62.9 µM
COc1ccc2[nH]c(C(=O)N/N=C/c3ccc(O)cc3O)cc2c1 | 3.87% (inactive) | 
C=CCN1Cc2ccccc2[C@@H]2OC(c3ccc(OCCCO)cc3)=N[C@]2(CCC(=O)OC(C)(C)C)C1=O | 6.61% (inactive) | 
CCC(Sc1nnc2c3ccccc3n(Cc3ccc(Br)cc3)c2n1)C(=O)NCCCN1CCOCC1 (centres undefined) |  | AC35 [2]: 21.2 µM

SMILES | activity change, negative = cytotoxicity ([1]; at 26 µM (top of the series)) | further results
Cc1c(NC(=O)c2cccc(NC(=O)COc3ccccc3C#N)c2)c(=O)n(-c2ccccc2)n1C |  | AC35 [2]: 24.4 µM
S=C(N/N=C(\c1ccccc1)c1ccccn1)N(Cc1ccccn1)Cc1ccccn1 |  | activity change, negative = cytotoxicity ([1]; at 19.5 µM (top of the series)): 8.82% (inactive)
O=C1/C(=C/c2ccncc2)SC(=S)N1Cc1ccccc1 | 7.62% (inactive) | 
Cc1ccc(NC(=O)C2CCN(S(=O)(=O)c3ccc4c(c3)NC(=O)C(C)S4)CC2)cc1Cl (centres undefined) | 44.9% (inactive) | 
C=C1C[C@]23C[C@@]1(O)CC[C@H]2[C@@]12C=C[C@H](O)[C@@](C)(C(=O)O1)[C@H]2[C@@H]3C(=O)O |  | activity change, negative = cytotoxicity ([1]; at 15 µM (top of the series)): 15.6% (inactive)
C[C@H](CO)N1C[C@H](C)[C@@H](CN(C)CC2CC2)OCCCC[C@H](C)Oc2ccc(NC(=O)Nc3cccc4ccccc34)cc2C1=O | 33.4% (inactive) | 
Cc1ccc(S(=O)(=O)NC(CC(C)C)C(=O)NCC(c2ccco2)N2CCCCC2)cc1 (centres undefined) | 2.47% (inactive) | 
CC1=C(C(=O)OCc2ccc3c(c2)OCO3)C(c2ccc(F)cc2)NC(=O)N1 (centres undefined) | 1.04% (inactive) | 
Cc1cc(NC(=O)c2ccc3c(c2)OCCO3)no1 | 6.92% (inactive) | 
c1ccc(-c2cn3c4c(sc3n2)CCCC4)cc1 | 3.96% (inactive) | 
C/C(=N\NC(=S)N1CCN(c2ccccn2)CC1)c1ccccn1 |  | AC35 [2]: 11.3 µM
C[C@@H]1CCCCO[C@H](CN(C)C(=O)c2ccccc2)[C@H](C)CN([C@@H](C)CO)C(=O)c2cc(NC(=O)Nc3ccc(F)cc3)ccc2O1 | 5.32% (inactive) | 
COc1ccc(-c2cc3nc4n(c(=O)c3s2)CCC4)cc1 | 3.13% (inactive) | 
C/C(=N\NC(=S)N1CCCC1)c1ccccn1 |  | AC35 [2]: 11 µM
Fc1ccc2c(c1)c1nnc(SCCN3CCOCC3)nc1n2Cc1ccccc1 |  | AC35 [2]: 16.9 µM
C=C1C[C@]23C[C@@]1(O)CC[C@@H]2c1cccc(C)c1[C@@H]3C(=O)O |  | AC35 [2]: 7.6 µM
C/C(=N\NC(=S)N1CCCCC1)c1ccccn1 |  | AC35 [2]: 10.9 µM
CSC(=S)N/N=C(\C)c1cccc(C)n1 |  | activity change, negative = cytotoxicity ([1]; at 19.5 µM (top of the series)): 17.8% (inactive)
COCCCNC(=O)C(C)Sc1nnc2c3cc(C)ccc3n(Cc3ccccc3F)c2n1 (centres undefined) |  | AC35 [2]: 56 µM
Cc1ccc(S(=O)(=O)Nc2ccc3c(c2)C(=O)N([C@@H](C)CO)C[C@H](C)[C@@H](CN(C)C(=O)CCC(F)(F)F)OCCCC[C@H](C)O3)cc1 | 0.533% (inactive) | 
O=c1[nH]c(Nc2nc3ccccc3o2)nc2c1CCCC2 | -4.82% (inactive) | 
C[C@@H]1CCCCO[C@H](CN(C)CC2CCCCC2)[C@H](C)CN([C@@H](C)CO)C(=O)c2cc(NC(=O)NC3CCCCC3)ccc2O1 | 4.75% (inactive) | 

SMILES | activity change, negative = cytotoxicity ([1]; at 26 µM (top of the series)) | further results
COc1ccc(-c2csc3ncnc(NCCN4CCOCC4)c23)cc1 | 7.09% (inactive) | 
CC(=O)Nc1nc(C)c(-c2csc(Nc3ccc(O)cc3)n2)s1 | 2.53% (inactive) | 
O=C(CSc1nnc2c3ccccc3n(Cc3ccccc3)c2n1)NCc1ccco1 | -2.78% (inactive) | 
c1ccc(Cn2c3ccccc3c3nnc(SCCN4CCCCC4)nc32)cc1 | -15% (inactive) | 
COc1ccc(NC(=O)c2ccc(OC(C)C(=O)O)cc2)cc1Cl (centres undefined) |  | AC35 [2]: 37.6 µM
CC12CCC3C(CC=C4CC(O)CCC43CO)C1CCC2OC(=O)c1ccccc1 (centres undefined) | -2.56% (inactive) | 
COc1cccc(/C=N/Nc2ncnc3c2ncn3Cc2ccccc2)c1O | 15.7% (inactive) | 
Oc1cccc(C(Nc2nccs2)c2ccc3cccnc3c2O)c1 (centres undefined) | 4.52% (inactive) | 
C[C@@H]1CN([C@@H](C)CO)C(=O)c2cc(NC(=O)Nc3ccc4c(c3)OCO4)ccc2O[C@H]1CN(C)CC1CCCCC1 | -4.73% (inactive) | 
O=C(CCc1ccccc1)NC(c1cccs1)c1cc(Cl)c2cccnc2c1O (centres undefined) | 6.13% (inactive) | 
O=c1[nH]c(=O)n([C@H]2C[C@H](O)[C@@H](CO)O2)cc1C(F)(F)F |  | AC35 [2]: 27.4 µM
C/C(=N\NC(=S)N1CC2CCC(CC2)C1)c1cnccn1 |  | AC35 [2]: 7.95 µM
C[C@@H]1CCCCO[C@H](CN(C)C(=O)NC2CCCCC2)[C@H](C)CN([C@@H](C)CO)C(=O)c2cc(NC(=O)C3CCCCC3)ccc2O1 | 3.97% (inactive) | 
CCn1c2ccccc2c2cc(/C=N/n3cnnc3)ccc21 | 12.2% (inactive) | 
C/C(=N\NC(=S)N1CC2CCC(CC2)C1)c1ccncn1 |  | activity change, negative = cytotoxicity ([1]; at 10 µM (top of the series)): 18.8% (inactive)
C[C@@H]1CCCCO[C@H](CN(C)S(=O)(=O)c2ccccc2)[C@@H](C)CN([C@@H](C)CO)C(=O)c2cc(N(C)C)ccc2O1 | 16.8% (inactive) | 
O=C(Nc1cc(C(F)(F)F)cc(C(F)(F)F)c1)Nc1cnn(-c2ccc([N+](=O)[O-])cc2)c1C(F)(F)F | 5.06% (inactive) | 
S=C(NCc1ccccn1)N/N=C/c1ccccn1 |  | AC35 [2]: 29.6 µM
C/C(=N\NC(=S)Nc1cccc(Cl)c1)c1ccccn1 |  | AC35 [2]: 16.2 µM
CNC[C@@H]1Oc2ccc(NS(=O)(=O)c3cn(C)cn3)cc2CC(=O)N([C@H](C)CO)C[C@@H]1C | -4.73% (inactive) | 
